The values that follow come from ChEMBL document CHEMBL1201862, “PubChem BioAssay data set” (2004).

The term AC50 denotes the concentration at which the activity in the assay is half-maximal. For orientation: EC50 means the midpoint of the concentration-response curve. As a reminder, the GI50 is the concentration at which growth is held to half of that of the control.

Assay [1] in a line: HepG2 cell cytotoxicity, dose response, cytotoxicity control, plate reader, cherry-pick, antagonist series (AID 743416). It is filed as functional, cell-based.
For assay [2], the target named is T1, Small ubiquitin-related modifier 1 (Homo sapiens, UniProt P63165). Put plainly: inhibitors of SUMO1 partner interactions, dose response, biochemical, FRET (AID 624383). Type of assay: functional. The following applies: read-out: IC50_Mean.
T1 sequence (P63165 whole entry): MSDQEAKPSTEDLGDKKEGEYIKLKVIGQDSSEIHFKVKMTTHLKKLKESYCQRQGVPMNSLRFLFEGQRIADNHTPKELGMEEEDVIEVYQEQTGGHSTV
Assay [3] has as its target T1, Small ubiquitin-related modifier 1. The assay is described as follows: inhibitors of SUMO1 peptide binding, dose response, biochemical, fluorescence polarization, uHTS hits (AID 624382). It is filed as functional. The note with it: read-out: IC50_Mean. A general note: In fluorescence polarisation assays a small probe gives low polarisation when free and higher when bound to something large.

Assay [4] addresses T2, Tyrosine-protein phosphatase non-receptor type 11 (Homo sapiens, UniProt Q06124).
T2 sequence (Q06124 whole entry): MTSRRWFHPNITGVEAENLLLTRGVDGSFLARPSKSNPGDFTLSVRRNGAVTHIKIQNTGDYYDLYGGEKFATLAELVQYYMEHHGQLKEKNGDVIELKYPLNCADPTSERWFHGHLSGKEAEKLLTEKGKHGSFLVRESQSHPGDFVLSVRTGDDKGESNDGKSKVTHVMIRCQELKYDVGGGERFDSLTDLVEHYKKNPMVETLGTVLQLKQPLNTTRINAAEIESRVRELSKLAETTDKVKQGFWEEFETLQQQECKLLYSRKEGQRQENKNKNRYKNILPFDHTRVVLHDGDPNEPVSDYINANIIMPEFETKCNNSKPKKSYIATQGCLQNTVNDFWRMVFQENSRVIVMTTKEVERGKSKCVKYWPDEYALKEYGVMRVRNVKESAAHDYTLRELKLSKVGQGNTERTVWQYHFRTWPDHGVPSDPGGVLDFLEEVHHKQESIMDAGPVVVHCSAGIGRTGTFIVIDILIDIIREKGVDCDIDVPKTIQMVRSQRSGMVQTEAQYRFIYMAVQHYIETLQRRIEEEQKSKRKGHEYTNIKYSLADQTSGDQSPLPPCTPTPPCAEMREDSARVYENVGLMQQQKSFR
Put plainly: SHP2 phosphatase inhibition, dose response, selectivity assay for STEP inhibitor project, biochemical (AID 602367). It is filed as functional. The note with it: read-out: IC50_Mean.

Assay [5] concerns the target Dual specificity protein phosphatase 3 (Homo sapiens, UniProt P51452). The assay is described as follows: VHR phosphatase inhibition, dose response, selectivity assay for STEP inhibitor project, biochemical (AID 602374). It is filed as functional. The following applies: read-out: IC50_Mean.
In assay [6] the target is T3, Tyrosine-protein phosphatase non-receptor type 5 (Homo sapiens, UniProt P54829).
T3 sequence (P54829 whole entry): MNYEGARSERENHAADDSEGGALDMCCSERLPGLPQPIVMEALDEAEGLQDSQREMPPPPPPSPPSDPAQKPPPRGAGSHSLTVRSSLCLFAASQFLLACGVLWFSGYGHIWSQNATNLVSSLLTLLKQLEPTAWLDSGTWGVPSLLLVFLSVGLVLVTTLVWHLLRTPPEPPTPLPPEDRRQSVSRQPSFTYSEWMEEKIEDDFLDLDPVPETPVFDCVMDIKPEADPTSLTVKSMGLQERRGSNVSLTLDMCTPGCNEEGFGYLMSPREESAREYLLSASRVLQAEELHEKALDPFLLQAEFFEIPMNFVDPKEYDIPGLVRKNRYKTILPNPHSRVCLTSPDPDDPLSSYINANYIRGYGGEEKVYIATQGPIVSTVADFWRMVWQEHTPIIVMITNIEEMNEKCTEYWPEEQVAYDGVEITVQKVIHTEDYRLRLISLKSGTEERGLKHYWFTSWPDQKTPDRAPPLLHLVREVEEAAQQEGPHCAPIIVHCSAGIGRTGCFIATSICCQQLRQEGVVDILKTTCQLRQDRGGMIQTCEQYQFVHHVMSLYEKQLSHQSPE
Put plainly: STEP phosphatase inhibitors, confirmation, biochemical, fluorescence intensity, uHTS hits (AID 602372). It is filed as functional. The following applies: read-out: IC50_Mean.

Assay [7] has as its target Protein Wnt-3a (Mus musculus, UniProt P27467). Put plainly: Wnt3a-driven reporter signaling inhibition, dose response, selectivity assay for Gli-SUFU antagonist project, Wnt-LIGHT cells, luminescence (AID 651570).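 Note: Wnt-LIGHT reporter cells stimulated with conditioned medium from Wnt3a-producing cells.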 It is filed as functional. The note with it: read-out: IC50_Mean.
Assay [8] can be described thus: cytotoxicity in HEK-293T cells, dose response, cytotoxicity control for TCR NF-kB inhibitor project, luminescence, T-cell screen hits (AID 489026).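 Note: cells exposed to compound about 14 hours before the viability readout.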 It is filed as functional, cell-based.
Assay [9] deals with T4, Carboxy-terminal domain RNA polymerase II polypeptide A small phosphatase 1 (Homo sapiens, UniProt Q9GZU7).
T4 sequence (Q9GZU7 whole entry): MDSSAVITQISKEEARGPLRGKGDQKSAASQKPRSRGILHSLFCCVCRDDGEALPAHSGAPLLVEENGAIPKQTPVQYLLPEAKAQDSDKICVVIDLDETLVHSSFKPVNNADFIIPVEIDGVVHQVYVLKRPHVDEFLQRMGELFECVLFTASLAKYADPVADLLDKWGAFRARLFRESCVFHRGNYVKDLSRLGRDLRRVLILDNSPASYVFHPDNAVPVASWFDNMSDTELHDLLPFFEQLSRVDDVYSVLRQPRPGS
The assay is described as follows: inhibitors of CTDSP1, concentration-response testing, biochemical assay, absorbance-based, actives from ultra-high-throughput screening (AID 540297). Type of assay: functional.

Assay [10] in a line: LGR2 antagonists, dose response, cell-based, HEK293, CRE-luciferase reporter, cherry pick, set 2 (AID 743343).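 Note: transfected cells were stimulated with diluted bursicon conditioned medium after compound addition.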 It is filed as functional. For orientation: Reporter assays use an easily measured gene product as a stand-in for the process of interest.
In assay [11] the test system is INS1. The assay is described as follows: beta cell apoptosis inhibitors, cytokine rescue, dose response, luminescence, retest (AID 449756).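 Note: cell death triggered by IL-1 beta plus TNF-alpha plus IFN-gamma mixture; protective hits raise ATP signal compared with cytokine alone wells.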 It is filed as functional, cell-based. The note with it: Rattus norvegicus.
Assay [12] can be described thus: A549 cell cytotoxicity, dose response, cytotoxicity control, plate reader, cherry-pick, antagonist series (AID 743412). Type of assay: functional, cell-based.
Assay [13] can be described thus: MC4R antagonists, dose response, counter-screen for LGR2 antagonist project, cell-based, plate reader, cherry pick (AID 743444).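 Note: transfected HEK 293 cells stimulated with alpha-MSH peptide; potency of inhibitors of the alpha-MSH evoked signal.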 Type of assay: functional. For orientation: The purpose of a counterscreen is to sort out artefacts and off-target activity.
Assay [14] in a line: HepG2 cell cytotoxicity, dose response, cytotoxicity control for Shn3 inhibitor project, CellTiter-Glo, cherry-picked (AID 624134). Type of assay: functional, cell-based.
The nature of assay [15]: control 3'UTR Renilla luciferase suppression, dose response, counter-screen for Shn3 inhibitor project, cell-based, Clone20-Shn3RL, cherry-picked (AID 624133). Type of assay: functional.
Assay [16] in a line: Shn3 3'UTR reporter inhibitors, dose response, cell-based, Clone20 osteoblasts, firefly luciferase, cherry-picked (AID 624132).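 Note: firefly luciferase luminescence from reporter carrying the Shn3 3'UTR in osteoblasts.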 Type of assay: functional.
Assay [17] has as its target T5, Galanin receptor type 3 (Homo sapiens, UniProt O60755).
T5 sequence (O60755 whole entry): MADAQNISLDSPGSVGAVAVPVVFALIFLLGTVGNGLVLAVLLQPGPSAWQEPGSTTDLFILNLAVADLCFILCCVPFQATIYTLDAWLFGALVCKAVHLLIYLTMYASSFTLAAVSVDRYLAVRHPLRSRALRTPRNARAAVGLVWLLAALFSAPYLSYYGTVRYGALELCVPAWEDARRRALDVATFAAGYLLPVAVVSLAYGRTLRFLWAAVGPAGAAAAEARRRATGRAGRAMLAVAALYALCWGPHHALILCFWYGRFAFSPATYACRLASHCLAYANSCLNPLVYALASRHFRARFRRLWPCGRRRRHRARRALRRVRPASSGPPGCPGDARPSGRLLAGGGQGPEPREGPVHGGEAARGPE
The assay is described as follows: Fluorescence-based cell-based primary high throughput dose response assay to identify antagonists of the Galanin Receptor 3 (GalR3). Type of assay: functional.

Assay [18] in a line: cells. The note with it: HEK-CNG. It is filed as functional, cell-based.
Assay [19] relates to P388/ADR. The assay is described as follows: cells. Type of assay: functional. The following applies: Mus musculus.
The test system of assay [20] is P388. The assay is described as follows: cells. The note with it: Mus musculus. Type of assay: functional.
For assay [21], the system named is SN12K1. The assay is described as follows: cells. It is filed as functional. The note with it: Homo sapiens.

Calls of active or inactive are those of the source.
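Throughout, for EC50: target is galanin receptor GalR3 read with a cAMP biosensor in HEK293 cells.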

Protein Wnt-3a, sequence (P27467 whole entry): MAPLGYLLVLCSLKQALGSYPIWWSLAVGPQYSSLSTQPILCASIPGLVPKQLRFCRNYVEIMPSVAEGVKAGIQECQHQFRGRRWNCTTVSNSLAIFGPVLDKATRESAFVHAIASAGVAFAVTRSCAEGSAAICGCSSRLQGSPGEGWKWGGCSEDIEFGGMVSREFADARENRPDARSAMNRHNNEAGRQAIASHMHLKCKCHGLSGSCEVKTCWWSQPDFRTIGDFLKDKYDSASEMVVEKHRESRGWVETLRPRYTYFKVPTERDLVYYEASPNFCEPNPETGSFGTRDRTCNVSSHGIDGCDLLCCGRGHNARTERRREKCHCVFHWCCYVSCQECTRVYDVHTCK
Dual specificity protein phosphatase 3, sequence (P51452 whole entry): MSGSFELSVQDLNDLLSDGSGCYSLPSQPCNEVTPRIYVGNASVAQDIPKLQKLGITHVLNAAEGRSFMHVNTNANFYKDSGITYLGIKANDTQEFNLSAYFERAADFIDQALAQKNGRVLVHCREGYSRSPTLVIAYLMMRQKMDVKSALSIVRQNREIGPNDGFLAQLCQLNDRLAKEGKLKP

`COc1ccc(N(CC(=O)NCc2cccs2)S(=O)(=O)c2ccc(C(C)=O)cc2)cc1`: the AC50 in assay [1] is > 52 µM (inactive).

As for `O=C(CSc1nc(C2CC2)nc2ccccc12)Nc1cccc(O)c1`, the values for the IC50 in assay [2] and in [3] were 20.4 µM (inactive) and > 66.6 µM (inactive), respectively.

On to `Cc1sc2nc(CSC(C)C(=O)Nc3ccc(Cl)cn3)nc(O)c2c1C` (stereo unspecified), for which the values for the IC50 in [4], in assay [5] and in [6] were 5.47 µM (active), 0.927 µM (active) and 15.6 µM (active), respectively.

Consider `Cc1ncoc1C(=O)NC1CCCc2c1cnn2-c1ccc(C(C)(C)C)cc1` (stereo unspecified), for which the values for the IC50 in [7] and in assay [8] were 4.53 µM (active) and > 80 µM (inactive), respectively.

In the case of `CNS(=O)(=O)c1cccc(C(=O)OCC(=O)c2cc(C)n(CC3CCCO3)c2C)c1` (stereo unspecified), in [7], the IC50 was 28.9 µM (inactive).

Take `COc1cccc(Nc2nn3c(=O)c4ccccc4nc3s2)c1`: the IC50 in assay [4] is 9.22 µM (active); in assay [5], 6.62 µM (active); in [9], 12.8 µM (active); in assay [6], 24.9 µM (inactive).

In the case of `Cc1cc(C)c(C)c(S(=O)(=O)N2CCN(c3ncnc4ccccc34)CC2)c1C`, the AC50 in [10] is 24.9 µM (active); in [11], 2.22 µM (active); in [12] it was 31.4 µM (active); in assay [13], 34.2 µM (active); in [14] it was 1.91 µM (active); in assay [1], 4.26 µM (active). Further, the concentration at half-maximal activity (AC50) was 1.86 µM (active) in assay [15] and 1.46 µM (active) in assay [16]. Also, the IC50 in assay [7] was 1.96 µM (active).

On to `O=C(NCCCl)NNc1c(Cl)cc(Cl)cc1Cl`, for which the IC50 in [17] was > 29.9 µM (inactive). Also, the EC50 in assay [18] is > 29.9 µM (inactive).

As to `O=C(Nc1ccc2oc(=O)ccc2c1)c1ccc(-c2ccccc2[N+](=O)[O-])o1`, the IC50 in [2] is 10.2 µM (active); in assay [3] it was > 66.6 µM (inactive).

Regarding `COc1ccc(C2=CC(c3ccc4c(c3)OCO4)c3c(c4ccccc4oc3=O)O2)cc1OC` (stereo unspecified), the IC50 in [17] was 5.72 µM (active). The EC50 in [18] is > 29.9 µM (inactive).

As to `COc1c(/C=C2\SC(Nc3ccccc3Cl)=NC2=O)cccc1[N+](=O)[O-]`, in assay [17], the IC50 is 0.547 µM (active). Further, in [18], the EC50 is > 29.9 µM (inactive).

Regarding `O=C(NN1C(=O)CSC1c1ccc(C(F)(F)F)cc1)c1ccncc1` (stereo unspecified), the GI50 is > 67.6 µM (inactive) in assay [19], > 100 µM (inactive) in [20] and > 100 µM (inactive) in [21].

For the compound `CCOC(=O)c1cc(-c2ccc(OC)cc2)nn1-c1ccccc1C(=O)O`, the IC50 in [2] is 21.8 µM (inactive); in [3], > 66.6 µM (inactive); in assay [9], 14.5 µM (active).
